Where two headings read alike, the source gives them in different places.
Legend:
PRAS40 [1] = target: T1, PRAS40 (Homo sapiens, UniProt Q96B36); test: ligand fishing from Erxian decoction with immobilized PRAS40, LC-MS identification; format: binding; settings: PBS-Tween, pH 7.4, eluted from Ni-NTA beads, identified from extract by MS only
T1 construct: gene AKT1S1; His-tagged, purchased from Genscript (Nanjing); UniProt Q96B36 (human) given only for the docking receptor

PRAS40 [2] = target: T1, PRAS40; test: isothermal titration calorimetry; format: binding
Description: isothermal titration calorimetry on PRAS40

[3] = read-out: Ka (M^-1) (converted)

SMILES | ligand fishing from Erxian decoction with immobilized PRAS40, LC-MS identificati (PRAS40 [1]; named as PAINS by the paper) | Kd (PRAS40 [2]; [3]) | Kd (PRAS40 [2]; read-out: Kd) | ligand fishing from Erxian decoction with immobilized PRAS40, LC-MS identificati (PRAS40 [1])
COc1cc(/C=C/C=O)cc(OC)c1O [sinapinaldehyde] | palmatine, sinapinaldehyde, and 3-chloroaniline as the potential ligands binding to PRAS40 | – | – | –
c1ccc2[nH]ccc2c1 [indole] | – | 2620 nM | 2620 nM | –
O=C(O)c1ccc(C(=O)O)cc1 [terephthalic acid] | – | – | – | The immobilized PRAS40 isolated indole, 4-nitrophenol, terephthalic acid
O=[N+]([O-])c1ccc(O)cc1 [4-nitrophenol] | – | – | – | The immobilized PRAS40 isolated indole, 4-nitrophenol, terephthalic acid
COc1cc2c(cc1OC)-c1cc3ccc(OC)c(OC)c3c[n+]1CC2 [palmatine] | – | 352 nM | 353 nM | –

— publication PMC10839085, “Screening and evaluation of metabolites binding PRAS40 from Erxian decoction used to treat spinal cord injury” (Frontiers in Pharmacology, 2024)
